# Reference: patent publication US20260069539A1, “LIPIDOID COMPOUNDS AND RELATED COMPOSITIONS AND USES” (Poseida Therapeutics, Inc., priority 2023, published 2026)
# Tested on: liver cells
# Experiment: In vivo LNP delivery of fLuciferase mRNA, bioluminescent imaging (BLI) at 4 hr
# Parameters: species or system BALB/C mice
# Conditions: for Total Flux: 0.5 mg/kg fLuciferase mRNA intravenous, BLI at 4 hr; for Mean Luciferase Flux: 0.5 mg/kg fLuc mRNA i.v., 4 hr
# Method: Adult female BALB/C mice (n=3/group) were intravenously administered 0.5 mg/kg of 5′-CleanCap—fLuciferase mRNA (TriLink Biotech) formulated with the LNP compositions shown in Table 6. One group of mice was treated with vehicle (PBS, Thermo Fisher Scientific, USA) as a negative control.
# The location and extent of luciferase expression in treated and control mice were determined at 4 hr for mRNA and 48 hr for DNA by bioluminescent imaging (BLI) of anesthetized mice using an IVIS Lumina in vivo imaging system (Perkin Elmer) according to the manufacturer's instructions. Briefly, mice were anesthetized using isoflurane in oxygen, and placed supine on a heated stage. Mice were then administered D-luciferin (Perkin-Elmer #122799) IP, and BLI was performed.
# (§1) The location and extent of luciferase expression in treated and control mice were determined at 4 hr by bioluminescent imaging (BLI) of anesthetized mice using an IVIS Lumina in vivo imaging system (Perkin Elmer) according to the manufacturer's instructions. Briefly, mice were anesthetized using isoflurane in oxygen, and placed supine on a heated stage. Mice were then administered D-luciferin (Perkin-Elmer #122799) IP, and BLI was performed.
# as §1
# The location and extent of luciferase expression in treated and control mice were determined at 4 hr by bioluminescent imaging (BLI) of anesthetized mice using an IVIS Lumina in vivo imaging system (Perkin Elmer) according to the manufacturer's instructions.
# Briefly, mice were anesthetized using isoflurane in oxygen, and placed supine on a heated stage. Mice were then administered D-luciferin (Perkin-Elmer #122799) IP, and BLI was performed.
# as §1
# [1] = Example 104, experiment of Table 63
# [2] = LNP with 40.75 % moles of the compound (DOPC 5.0/Chol 51.75/PEG-DMG 2.5, Lipid:RNA 100)
# [3] = LNP with 43.17 % moles of the compound (DOPC 11.96/Chol 43.17/PEG-DMG 1.7, Lipid:RNA 100)
# [4] = LNP with 54.0 % moles of the compound (DOPC 10.0/Chol 35.0/PEG-DMG 1.0, Lipid:RNA 100)
# [5] = Table 13 experiment, LNP with 50 % moles of the compound (DOPC 10/Chol 38.5/PEG-DMG 1.5, Lipid:RNA 80)
smiles,measurement,setting,value
CCCCC[C@H]1CC[C@H](C(=O)OCC(COC(=O)CCCCCN(CCCCCC(=O)OCC(COC(=O)[C@H]2CC[C@H](CCCCC)CC2)COC(=O)[C@H]2CC[C@H](CCCCC)CC2)CC(C)O)COC(=O)[C@H]2CC[C@H](CCCCC)CC2)CC1 (mixture of isomers) [COMPOUND NO. 55],Total Flux,[1],7.89E+10 p/s
CCCCC[C@H]1CC[C@H](C(=O)OCC(COC(=O)CCCCCN(CCCCCC(=O)OCC(COC(=O)[C@H]2CC[C@H](CCCCC)CC2)COC(=O)[C@H]2CC[C@H](CCCCC)CC2)CC(O)CO)COC(=O)[C@H]2CC[C@H](CCCCC)CC2)CC1 (mixture of isomers) [COMPOUND NO. 59],Total Flux,"Example 104, experiment of Table 64",1.06E+11 p/s
CC(C)CCCC1CCC(COC(=O)CCN(CCCN(C)CCCN(CCC(=O)OCC2CCC(CCCC(C)C)CC2)CCC(=O)OCC2CCC(CCCC(C)C)CC2)CCC(=O)OCC2CCC(CCCC(C)C)CC2)CC1 (stereo not drawn) [COMPOUND NO. 1],Mean Luciferase Flux,[2],8.79E+09 p/s
same,Mean Luciferase Flux,[3],1.01E+10 p/s
same,Mean Luciferase Flux,[4],6.15E+08 p/s
CN(CCCN(CCC(=O)OCC1CCC(CCCCC2CCCCC2)CC1)CCC(=O)OCC1CCC(CCCCC2CCCCC2)CC1)CCCN(CCC(=O)OCC1CCC(CCCCC2CCCCC2)CC1)CCC(=O)OCC1CCC(CCCCC2CCCCC2)CC1 (stereo not drawn) [COMPOUND NO. 2],Mean Luciferase Flux,[2],2.53E+07 p/s
CN(CCCN(CCC(=O)OCCOC(=O)CCCCC1CCCCC1)CCC(=O)OCCOC(=O)CCCCC1CCCCC1)CCCN(CCC(=O)OCCOC(=O)CCCCC1CCCCC1)CCC(=O)OCCOC(=O)CCCCC1CCCCC1 [COMPOUND NO. 5],Mean Luciferase Flux,[2],2.84E+11 p/s
same,Mean Luciferase Flux,[3],7.16E+10 p/s
same,Mean Luciferase Flux,[4],7.25E+08 p/s
CN(CCN(CCC(=O)OCCOC(=O)CCCCC1CCCCC1)CCC(=O)OCCOC(=O)CCCCC1CCCCC1)CCN(CCC(=O)OCCOC(=O)CCCCC1CCCCC1)CCC(=O)OCCOC(=O)CCCCC1CCCCC1 [COMPOUND NO. 6],Mean Luciferase Flux,[2],1.78E+11 p/s
same,Mean Luciferase Flux,[3],3.23E+10 p/s
same,Mean Luciferase Flux,[4],4.58E+10 p/s
CC(C)CCCC(=O)OCC1CCC(COC(=O)CCN(CCCN(C)CCCN(CCC(=O)OCC2CCC(COC(=O)CCCC(C)C)CC2)CCC(=O)OCC2CCC(COC(=O)CCCC(C)C)CC2)CCC(=O)OCC2CCC(COC(=O)CCCC(C)C)CC2)CC1 (stereo not drawn) [COMPOUND NO. 7],Mean Luciferase Flux,[2],6.41E+10 p/s
same,Mean Luciferase Flux,[3],1.84E+11 p/s
same,Mean Luciferase Flux,[4],1.55E+11 p/s
CCCCCC(=O)OCC1CCC(COC(=O)CCN(CCCN(C)CCCN(CCC(=O)OCC2CCC(COC(=O)CCCCC)CC2)CCC(=O)OCC2CCC(COC(=O)CCCCC)CC2)CCC(=O)OCC2CCC(COC(=O)CCCCC)CC2)CC1 (stereo not drawn) [COMPOUND NO. 8],Mean Luciferase Flux,[2],1.27E+11 p/s
same,Mean Luciferase Flux,[3],3.31E+11 p/s
same,Mean Luciferase Flux,[4],2.33E+11 p/s
CCCCC[C@H]1CC[C@H](C(=O)OCCCCCN(CCO)CCCOC(=O)[C@H]2CC[C@H](CCCCC)CC2)CC1 [COMPOUND NO. 21],Mean Luciferase Flux,[5],1.27E+08 p/s
CCCCC[C@H]1CC[C@H](C(=O)OCCCCCN(CCCO)CCCOC(=O)[C@H]2CC[C@H](CCCCC)CC2)CC1 [COMPOUND NO. 22],Mean Luciferase Flux,[5],2.31E+07 p/s
CCCCC[C@H]1CC[C@H](C(=O)OCCCCCCCN(CCO)CCCCCCCOC(=O)[C@H]2CC[C@H](CCCCC)CC2)CC1 [COMPOUND NO. 24],Mean Luciferase Flux,[5],3.46E+06 p/s
CCCCCCCCC(CCCCCC)C(=O)O[C@H]1CC[C@H](OC(=O)CCCCCN(CCO)CCCCCC(=O)O[C@H]2CC[C@H](OC(=O)C(CCCCCC)CCCCCCCC)CC2)CC1 (stereo partly drawn) [COMPOUND NO. 27],Mean Luciferase Flux,[5],1.10E+10 p/s
CCCCCCCCC(CCCCCC)C(=O)O[C@H]1CC[C@H](OC(=O)CCCCCN(CCCO)CCCCCC(=O)O[C@H]2CC[C@H](OC(=O)C(CCCCCC)CCCCCCCC)CC2)CC1 (stereo partly drawn) [COMPOUND NO. 28],Mean Luciferase Flux,[5],3.28E+10 p/s
CCCCCCCCC(CCCCCCCC)OC(=O)[C@H]1CC[C@H](C(=O)OCCCCCN(CCO)CCCCCOC(=O)[C@H]2CC[C@H](C(=O)OC(CCCCCCCC)CCCCCCCC)CC2)CC1 [COMPOUND NO. 30],Mean Luciferase Flux,[5],2.54E+10 p/s
CCCCCCCCC(CCCCCCCC)OC(=O)[C@H]1CC[C@H](C(=O)OCCCCCN(CCCO)CCCCCOC(=O)[C@H]2CC[C@H](C(=O)OC(CCCCCCCC)CCCCCCCC)CC2)CC1 [COMPOUND NO. 31],Mean Luciferase Flux,[5],1.00E+10 p/s
CCCCCCCCC(CCCCCCCC)OC(=O)[C@H]1CC[C@H](C(=O)OCCCCCN(CCCCO)CCCCCOC(=O)[C@H]2CC[C@H](C(=O)OC(CCCCCCCC)CCCCCCCC)CC2)CC1 [COMPOUND NO. 32],Mean Luciferase Flux,[5],7.76E+09 p/s
CCCCCCCCC(CCCCCC)C(=O)OC1CCC(OC(=O)CCCCCN(CCO)CCCCCCCOC(=O)C2CCC(CCCCC)CC2)CC1 (stereo not drawn) [COMPOUND NO. 33],Mean Luciferase Flux,[5],1.73E+10 p/s
CCCCCCCCC(CCCCCCCC)OC(=O)C1CCC(C(=O)OCCCCCN(CCO)CCCCCCCOC(=O)C2CCC(CCCCC)CC2)CC1 (stereo not drawn) [COMPOUND NO. 34],Mean Luciferase Flux,[5],1.87E+10 p/s
CCCCC[C@H]1CC[C@H](C(=O)CCCCN(CCCOC(=O)[C@H]2CC[C@H](CCCCC)CC2)CCCN(C)CCCN(CCCOC(=O)[C@H]2CC[C@H](CCCCC)CC2)CCCOC(=O)[C@H]2CC[C@H](CCCCC)CC2)CC1 [COMPOUND NO. 35],Mean Luciferase Flux,"Table 13 experiment, first line of compound 35, printed 50 % moles (Table 12: 40.75 % moles, Lipid:RNA 80)",2.35E+09 p/s
same,Mean Luciferase Flux,"Table 13 experiment, second line of compound 35, printed 50 % moles (Table 12: 40.75 % moles, Lipid:RNA 40)",3.13E+09 p/s
CC(C)CCCC1CCC(COC(=O)C(CCCN(C)CCCC(C(=O)OCC2CCC(CCCC(C)C)CC2)C(=O)OCC2CCC(CCCC(C)C)CC2)C(=O)OCC2CCC(CCCC(C)C)CC2)CC1 (stereo not drawn) [COMPOUND NO. 43],Mean Luciferase Flux,"Table 14 experiment, LNP with 40.75 % moles of the compound (Lipid:RNA 40)",1.12E+09 p/s
same,Mean Luciferase Flux,"Table 14 experiment, LNP with 50 % moles of the compound (Lipid:RNA 80)",1.10E+09 p/s
CCCCC(CC)CCCCOC(=O)C(CCCN(CCCO)CCCC(C(=O)OCCCCC1CCCCC1)C(=O)OCCCCC1CCCCC1)C(=O)OCCCCC1CCCCC1 (stereo not drawn) [COMPOUND NO. 44],Total Flux,[1],5.73E+08 p/s
O=C(OCCCCC1CCCCC1)C(CCCCCCN(CCCO)CCCCCCC(C(=O)OCCCCC1CCCCC1)C(=O)OCCCCC1CCCCC1)C(=O)OCCCCC1CCCCC1 [COMPOUND NO. 45],Total Flux,[1],2.42E+10 p/s
CCCCCC(=O)OCC1CCC(COC(=O)C(CCCN(CCCO)CCCC(C(=O)OCC2CCC(COC(=O)CCCCC)CC2)C(=O)OCC2CCC(COC(=O)CCCCC)CC2)C(=O)OCC2CCC(COC(=O)CCCCC)CC2)CC1 (stereo not drawn) [COMPOUND NO. 49],Total Flux,[1],2.00E+11 p/s
CCCCC[C@H]1CC[C@H](C(=O)OCC(COC(=O)CCCCCN(CCCCCO)CCCCCC(=O)OCC(COC(=O)[C@H]2CC[C@H](CCCCC)CC2)COC(=O)[C@H]2CC[C@H](CCCCC)CC2)COC(=O)[C@H]2CC[C@H](CCCCC)CC2)CC1 [COMPOUND NO. 51],Total Flux,[1],2.65E+10 p/s
CCCCC[C@H]1CC[C@H](C(=O)OCC(COC(=O)CCCCCN(CCCCCCO)CCCCCC(=O)OCC(COC(=O)[C@H]2CC[C@H](CCCCC)CC2)COC(=O)[C@H]2CC[C@H](CCCCC)CC2)COC(=O)[C@H]2CC[C@H](CCCCC)CC2)CC1 [COMPOUND NO. 52],Total Flux,[1],1.81E+11 p/s
CCCCC[C@H]1CC[C@H](C(=O)OCC(COC(=O)CCCCCN(CCCCCC(=O)OCC(COC(=O)[C@H]2CC[C@H](CCCCC)CC2)COC(=O)[C@H]2CC[C@H](CCCCC)CC2)[C@H]2CC[C@H](CO)CC2)COC(=O)[C@H]2CC[C@H](CCCCC)CC2)CC1 [COMPOUND NO. 54],Total Flux,[1],1.30E+11 p/s
CCCCC[C@H]1CC[C@H](C(=O)OCC(COC(=O)CCCCCN(CCCCCC(=O)OCC(COC(=O)[C@H]2CC[C@H](CCCCC)CC2)COC(=O)[C@H]2CC[C@H](CCCCC)CC2)C[C@H](C)O)COC(=O)[C@H]2CC[C@H](CCCCC)CC2)CC1 [COMPOUND NO. 56],Total Flux,[1],9.88E+10 p/s
